Measured values taken from patent publication US20260125371A1, “METHOD FOR INHIBITING CLOSTRIDIOIDES DIFFICILE SPORE GERMINATION” (UNIVERSITY OF NOTRE DAME DU LAC, priority 2022, published 2026).
Where two headings read alike, the source gives them in different places.

Columns and labels:
S. aureus = experiment: MIC against S. aureus strains; assay type: cell-based
[1] = test system: S. haemolyticus ATCC 29970; experiment: MIC against S. haemolyticus; assay type: cell-based; conditions: Staphylococcus haemolyticus, ATCC29970
A. baumanii ATCC17961 = experiment: MIC against A. baumanii; assay type: cell-based; conditions: Acinetobacter baumannii; A. baumanii ATCC17961; read-out: MIC
P. aeruginosa ATCC27853 = experiment: MIC against P. aeruginosa; assay type: cell-based; conditions: Pseudomonas aeruginosa; P. aeruginosa ATCC27853; read-out: MIC
E. aerogenes ATCC35029 = experiment: MIC against E. aerogenes; assay type: cell-based; conditions: Klebsiella aerogenes; E. aerogenes ATCC35029; read-out: MIC
E. coli ATCC25922 = experiment: MIC against E. coli; assay type: cell-based; conditions: Escherichia coli; E. coli ATCC25922; read-out: MIC
Gram-negative bacteria = assay type: cell-based
C. difficile ATCC 43255 = experiment: Minimal-bactericidal concentration (MBC); assay type: cell-based, Clostridioides difficile; conditions: MBC/MIC≤4 indicates bactericidal
THP-1 cells = experiment: Lactate dehydrogenase (LDH) cytotoxicity assay; assay type: cell-based, human; conditions: Homo sapiens
C. difficile strains = conditions: cited from earlier work
[2] = test system: Bifidobacterium longum HM-846; conditions: cited from earlier work
[3] = test system: Lactobacillus reuteri HM-102; conditions: cited from earlier work
[4] = test system: Lactobacillus gasseri HM-644; conditions: cited from earlier work

O=[N+]([O-])c1cnc(-c2nc(-c3ccc(OC4CCCC4)cc3)no2)[nH]1 [Compound 57, 3-(4-(Cyclopentyloxy)phenyl)-5-(4-nitro-1H-imidazol-2-yl)-1,2,4-oxadiazole]
> 128 µg/mL: MIC (A. baumanii ATCC17961) | MIC (P. aeruginosa ATCC27853) | MIC (E. aerogenes ATCC35029) | MIC (E. coli ATCC25922) | IC50 (THP-1 cells; THP-1, 24 h, read-out: LDH (IC50))
bactericidal: bactericidal or bacteriostatic (C. difficile ATCC 43255)
no activity: activity against Gram-negative organisms (Gram-negative bacteria)
64 µg/mL: MIC (S. aureus; Staphylococcus aureus, S. aureus VRS1, read-out: MIC)
> 50 µg/mL: IC50 (THP-1 cells; THP-1, read-out: toxicity IC50 (LDH assay))
32 µg/mL: MIC (S. aureus; Staphylococcus aureus, S. aureus VRS2, read-out: MIC) | MIC ([1]; S. haemolyticus ATCC 29970, read-out: MIC)

Cc1ncc([N+](=O)[O-])n1CCO [MTZ, metronidazole]
>256 µg/mL: MIC (S. aureus; S. aureus VRS2)
0.05 µg/mL: MIC [2]
0.5 µg/mL: IMIC50 (101 strains) (C. difficile strains; 101 C. difficile strains) | MIC (C. difficile strains; C. difficile 23828, resistant to FDX) | MIC (C. difficile strains; C. difficile 24531, resistant to VAN) | MIC (C. difficile strains; C. difficile BAA-1803) | MIC (C. difficile strains; C. difficile BAA-1870) | MIC50 (C. difficile strains; C. difficile strains of Table 4) | MIC (C. difficile strains; strain BAA-1803) | MIC (C. difficile strains; strain BAA-1870) | MIC (C. difficile strains; strain HM-745) | MIC (C. difficile strains; strain HM-747) | MIC (C. difficile strains; strain NR-13430) | MIC (C. difficile strains; strain NR-13431) | MIC (C. difficile strains; strain NR-13433) | MIC (C. difficile strains; strain NR-13434) | MIC (C. difficile strains; strain NR-13435) | MIC (C. difficile strains; strain NR-13436) | MIC (C. difficile strains; strain NR-13437) | MIC (C. difficile strains; strain NR-13438) | MIC (C. difficile strains; strain NR-13553) | MIC (C. difficile strains; strain NR-32883) | MIC (C. difficile strains; strain NR-32884) | MIC (C. difficile strains; strain NR-32885) | MIC (C. difficile strains; strain NR-32886) | MIC (C. difficile strains; strain NR-32888) | MIC (C. difficile strains; strain NR-32890) | MIC (C. difficile strains; strain NR-32892) | MIC (C. difficile strains; strain NR-32897) | MIC (C. difficile strains; strain NR-32903) | MIC (C. difficile strains; strain NR-32904) | MIC (C. difficile strains; strain NR-49277) | MIC (C. difficile strains; strain NR-49278) | MIC (C. difficile strains; strain NR-49282) | MIC (C. difficile strains; strain NR-49283) | MIC (C. difficile strains; strain NR-49284) | MIC (C. difficile strains; strain NR-49285) | MIC (C. difficile strains; strain NR-49287) | MIC (C. difficile strains; strain NR-49288) | MIC (C. difficile strains; strain NR-49289) | MIC (C. difficile strains; strain NR-49293) | MIC (C. difficile strains; strain NR-49295) | MIC (C. difficile strains; strain NR-49296) | MIC (C. difficile strains; strain NR-49297) | MIC (C. difficile strains; strain NR-49299) | MIC (C. difficile strains; strain NR-49300) | MIC (C. difficile strains; strain NR-49301) | MIC (C. difficile strains; strain NR-49303) | MIC (C. difficile strains; strain NR-49304) | MIC (C. difficile strains; strain NR-49306) | MIC (C. difficile strains; strain NR-49307) | MIC (C. difficile strains; strain NR-49308) | MIC (C. difficile strains; strain NR-49311) | MIC (C. difficile strains; strain NR-49312) | MIC (C. difficile strains; strain NR-49313) | MIC (C. difficile strains; strain NR-49314) | MIC (C. difficile strains; strain NR-49315) | MIC (C. difficile strains; strain NR-49316) | MIC (C. difficile strains; strain NR-49317) | MIC (C. difficile strains; strain NR-49319) | MIC (C. difficile strains; strain NR-49320) | MIC (C. difficile strains; strain NR-49321) | MIC (C. difficile strains; strain NR-49325) | MIC (C. difficile strains; strain NR-49326) | MIC (C. difficile strains; strain NR-49327) | MIC (C. difficile strains; strain RMA23691) | MIC (C. difficile strains; strain RMA23828) | MIC (C. difficile strains; strain RMA24531) | MIC (C. difficile strains; strain RMA27081)
> 256 µg/mL: MIC (S. aureus; Staphylococcus aureus) | MIC (S. aureus; Staphylococcus aureus, ATCC27660) | MIC (S. aureus; Staphylococcus aureus, ATCC29213) | MIC [1]
no activity: activity against Gram-negative organisms (Gram-negative bacteria)
4 µg/mL: MIC (C. difficile strains; C. difficile 26675, resistant to MTZ) | MIC (C. difficile strains; strain RMA26675) | MIC (C. difficile strains; strain RMA27173)
bactericidal: bactericidal or bacteriostatic (C. difficile ATCC 43255)
>32 µg/mL: MIC [3] | MIC [4]
> 128 µg/mL: MIC (A. baumanii ATCC17961) | MIC (P. aeruginosa ATCC27853) | MIC (E. aerogenes ATCC35029) | MIC (E. coli ATCC25922)
